US9801888B2, “Pyrimidine compounds as mTOR and PI3K inhibitors” (DEVELOPMENT CENTER FOR BIOTECHNOLOGY, priority 2009, dated 2017)

target: recombinant mTOR (Homo sapiens (Human), UniProt P42345); test: mTOR kinase assay (33P incorporation into 4EBP1); type: biochemical; settings: compound at 10 μM; 10 μM ATP; versus DMSO control
Experimental: The activity of the compound against mTOR was examined by measuring the incorporation of ^33P from [γ-^33P]-ATP into 4EBP1. His-tagged, recombinant human 4EBP1 was expressed in E. coli, purified by nickel-nitrilotriacetic acid (Ni-NTA) resins, and stored at −80° C. Phosphorylation of 4EBP1 by mTOR was assayed in the presence or absence of the compound and performed in a final volume of 25 μl reaction buffer containing 300 ng 4EBP1, 50 ng recombinant mTOR (Invitrogen), 50 mM HEPES (pH 7.5), 1 mM EGTA, 0.01% Polysorbate 20, 10 mM MnCl2, 2.5 mM DTT, 10 μM ATP, and 0.5 μCi [γ-33P]-ATP (PerkinElmer) for 30 min at 30° C. The reactions were terminated by adding 3% phosphoric acid. The ^33P labeled 4EBP1 was transferred onto UniFilter-96 GF/B plate (PerkinElmer) and quantified by Top Count Microplate Scintillation Counter (PerkinElmer). For primary screening of kinase activity inhibition, each test compound was evaluated at […] in duplicate. […] The IC50 values of the compounds were determined after carrying out assays at eight serially diluted concentrations of each compound in duplicate. The results were analyzed using […] software (GraphPad Prism 5; GraphPad Software Inc.).
IC50 value is defined as the concentration of the test compound which achieves a half-maximal inhibition of the kinase activity.

Chain of recombinant mTOR (P42345 1360-2549): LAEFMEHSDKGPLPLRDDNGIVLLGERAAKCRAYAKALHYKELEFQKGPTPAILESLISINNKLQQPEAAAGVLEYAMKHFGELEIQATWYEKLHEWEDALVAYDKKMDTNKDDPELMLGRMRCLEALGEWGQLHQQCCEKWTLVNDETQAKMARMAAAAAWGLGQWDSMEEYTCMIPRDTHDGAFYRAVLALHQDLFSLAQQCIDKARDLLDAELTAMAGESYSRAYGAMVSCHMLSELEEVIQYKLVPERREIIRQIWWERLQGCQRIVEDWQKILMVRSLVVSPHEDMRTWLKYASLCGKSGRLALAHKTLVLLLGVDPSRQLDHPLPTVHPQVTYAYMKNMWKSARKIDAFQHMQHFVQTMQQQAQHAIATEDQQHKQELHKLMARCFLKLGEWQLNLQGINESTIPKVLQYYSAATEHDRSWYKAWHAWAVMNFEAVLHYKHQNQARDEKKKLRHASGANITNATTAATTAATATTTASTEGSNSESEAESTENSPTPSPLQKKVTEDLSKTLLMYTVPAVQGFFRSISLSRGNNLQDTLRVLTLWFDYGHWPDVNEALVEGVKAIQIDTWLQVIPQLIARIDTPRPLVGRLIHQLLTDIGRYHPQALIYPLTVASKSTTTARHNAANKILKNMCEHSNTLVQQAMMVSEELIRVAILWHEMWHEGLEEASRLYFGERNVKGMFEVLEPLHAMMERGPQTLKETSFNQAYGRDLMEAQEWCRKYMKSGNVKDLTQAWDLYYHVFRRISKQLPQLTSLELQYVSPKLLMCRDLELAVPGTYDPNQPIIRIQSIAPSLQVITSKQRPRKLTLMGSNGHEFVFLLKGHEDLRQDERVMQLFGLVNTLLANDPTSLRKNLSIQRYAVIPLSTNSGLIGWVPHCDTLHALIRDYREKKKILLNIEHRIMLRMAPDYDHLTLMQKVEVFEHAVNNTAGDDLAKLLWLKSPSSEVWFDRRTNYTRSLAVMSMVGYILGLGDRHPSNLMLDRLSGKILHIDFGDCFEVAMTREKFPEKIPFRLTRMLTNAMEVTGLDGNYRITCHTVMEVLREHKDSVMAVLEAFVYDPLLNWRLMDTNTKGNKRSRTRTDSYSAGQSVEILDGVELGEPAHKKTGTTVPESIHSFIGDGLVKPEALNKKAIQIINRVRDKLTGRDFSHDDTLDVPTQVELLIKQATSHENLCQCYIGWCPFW

For `COc1c(-c2ccc(N)cc2)nc(-c2ccc(N)cc2)nc1N1CCOCC1` [MTR-0483], the “% Inhibition @ 10 μM” value was 88%.

tested on: PI3K (p110β/p85α); test: PI3K HTRF enzyme assay, p110β/p85α; type: biochemical; settings: compound at 500 nM; 100 μM ATP
Experimental: Recombinant PI3K (p110α/p85α) and PI3K (p110β/p85α) were from Millipore. […] Briefly, the compounds of interest dissolved in 100% DMSO were dispensed in all wells, following which the mixture of PIP2 and enzyme was added. PI3K (p110α/p85α) and PI3K (p110β/p85α) enzyme reactions were initiated in the presence of 10 μM and 100 μM ATP, respectively, and incubated for 30 min at room temperature. STOP solution prepared 2 hours prior to use was added to stop reactions, and mixed well. Detection solution prepared 2 hours prior to use was added, and incubated at room temperature for 17 hours in the dark. […] HTRF ration was calculated as follows: […]

Going from `CSc1c(Cl)nc(-c2ccc(NC(=O)Nc3ccc(F)cc3)cc2)nc1N1CCOCC1` [MTR-0135, 1-[4-(4-Chloro-5-methylsulfanyl-6-morpholin-4-yl-pyrimidin-2-yl)-phenyl]-3-(4-fluoro-phenyl)-urea] to `CSc1cnc(-c2ccc(NC(=O)Nc3ccc(F)cc3)cc2)nc1N1CCOCC1` [MTR-0178, 1-(4-Fluoro-phenyl)-3-[4-(5-methylsulfanyl-4-morpholin-4-yl-pyrimidin-2-yl)-phenyl]-urea], the “% inhibition @ 500 nM p110β” value falls from 14.20% to 8.20%.

Compared with `CSc1c(OCCN(C)C)nc(-c2cccc(O)c2)nc1N1CCOCC1` [MTR-0043, 3-[4-(2-Dimethylamino-ethoxy)-5-methylsulfanyl-6-morpholin-4-yl-pyrimidin-2-yl]-phenol], `CSc1c(Cl)nc(-c2ccc(N)nc2)nc1N1CCOCC1` [MTR-0133, 5-(4-Chloro-5-methylsulfanyl-6-morpholin-4-yl-pyrimidin-2-yl)-pyridin-2-ylamine] is lower in “% inhibition @ 500 nM p110β” value: 44.80% for the first, 4.50% for the second.

Compared with `CCOc1cnc(-c2ccc(NC(=O)Nc3ccc(N4CCOCC4=O)cc3)cc2)nc1-c1ccncc1` [MTR-0398, 1-[4-(5-Ethoxy-4-pyridin-4-yl-pyrimidin-2-yl)-phenyl]-3-[4-(3-oxo-morpholin-4-yl)-phenyl]-urea], `COc1cnc(-c2ccc(NC(=O)Nc3cccc(F)c3)cc2)nc1N1CCOCC1` [MTR-0164, 1-(3-Fluoro-phenyl)-3-[4-(5-methoxy-4-morpholin-4-yl-pyrimidin-2-yl)-phenyl]-urea] is higher in “% inhibition @ 500 nM p110β” value: 21.80% for the first, 42.10% for the second.

Compared with `CCOC(=O)c1nc(-c2ccc(NC(=O)Nc3cccc(F)c3)cc2)nc(N2CCOCC2)c1OCC` [MTR-0147, 5-Ethoxy-2-{4-[3-(3-fluoro-phenyl)-ureido]-phenyl}-6-morpholin-4-yl-pyrimidine-4-carboxylic acid ethyl ester], `CCOc1c(CN2CCN(S(C)(=O)=O)CC2)nc(-c2ccc(NC(=O)Nc3ccccc3)cc2)nc1N1CCOCC1` [MTR-0169, 1-{4-[5-Ethoxy-4-(4-methanesulfonyl-piperazin-1-ylmethyl)-6-morpholin-4-yl-pyrimidin-2-yl]-phenyl}-3-phenyl-urea] is higher in “% inhibition @ 500 nM p110β” value: 1.20% for the first, 3.20% for the second.
